Patent US7741280B2, “Multimeric molecules, the preparation method thereof and use of same for the preparation of medicaments” (Centre National de la Recherche Scientifique, priority 2002, dated 2010)
Where a SMILES comes first, the peptide text is derived from it. Side-chain parts run from the residue outwards. [ ]: non-standard residue; d: D form. Ahx = NCCCCCC(=O)O

What was measured:
[1] = biological target: T1, CD40-CD40L interaction (Homo sapiens, UniProt P25942); assay: Expression of CD95 induced by CD40L on BL41 cells cultured with 3T6-CD40L fibroblasts (flow cytometry); type: cell-based; settings: BL41 + 3T6-CD40L, 48 hours
T1 construct: they receive a signal via the CD40 molecule, which they express in a constitutive manner; endogenous in cells; host or cells: BL41 Burkitt's lymphoma cells (endogenous CD40), co-cultured with 3T6 fibroblasts transfected with CD40L
Protocol: Then, the affinity of these ligands for the CD40 molecule is evaluated using a biosensor (BIAcore™). The agonist or antagonist effect of the ligands was tested using two simple biological tests. In the first, the expression of the membranous molecule CD95 by transformed B cells (Burkitt's lymphoma) is studied after activation by the CD40-CD40L interaction (Schattner et al., 1996). In such a model, the CD40L partner is expressed on transfected fibroblasts (3T6-CD40L) (Buelens et al., 1997). The BL41 Burkitt's lymphoma cells are incubated with non-transfected 3T6 fibroblasts (FIGS. 3A and 3C) or with 3T6 fibroblasts transfected by CD40L (FIGS. 3B and 3D). After 48 hours, the expression of CD95 is evaluated by flow cytometry. The expression of CD95 is induced in the presence of CD40L (FIG. 3B). A commercial anti-CD40L antibody inhibits the consequences of the CD40-CD40L interaction (FIG. 3D).
The antagonist effect is evaluated by measurement of the decrease in the expression of CD95 induced by the CD40L in the presence of the different chemical ligands (see Table I). With the help of these tests, the most interesting ligands are chosen to evaluate their activity in vivo and in vitro in more complex models.
The lymphoma B cells express the CD95 molecule when they receive a signal via the CD40 molecule, which they express in a constitutive manner. This signal is generally conveyed by the CD40L (CD154) molecule expressed by another cell. The antagonist ligands inhibit the binding of CD40 on CD40L and thus […] the expression of CD95. The agonist ligands copy the CD40L molecule and induce the expression of CD95 even in the absence of the cell expressing CD40L.
The BL41 Burkitt's lymphoma cells (5.10^5/ml) are cultured in the presence of 3T6 fibroblasts (10^5/ml) transfected (3T6-CD40L) or not transfected with CD40L (3T6), and treated with mitomycin to stop their proliferation. The ligands are added at the start of the culture at the chosen concentration. After culture for 48 hours, expression of the CD95 molecule is measured by flow cytometry. The BL41 cells are distinguished from the fibroblasts using an anti-CD19 antibody (specific marker of the B cells).

[2] = biological target: T1, CD40-CD40L interaction; assay: as above; type: cell-based; settings: concentration of 50 μM

T1 sequence (P25942 21-277): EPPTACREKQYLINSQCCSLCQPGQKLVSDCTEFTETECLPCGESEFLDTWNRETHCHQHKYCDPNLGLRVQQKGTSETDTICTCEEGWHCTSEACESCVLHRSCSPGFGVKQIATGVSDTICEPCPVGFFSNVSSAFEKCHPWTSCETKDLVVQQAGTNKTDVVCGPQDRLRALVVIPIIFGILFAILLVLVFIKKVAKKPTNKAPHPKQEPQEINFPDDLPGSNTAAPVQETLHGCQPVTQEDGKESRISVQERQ

C[C@H]1NC(=O)[C@H](CCCCNC(=O)CCCCCNC(=O)[C@H](Cc2ccc(O)cc2)NC(=O)[C@H](Cc2ccc(O)cc2)NC(=O)CNC(=O)[C@@H](N)CCCCN)NC(=O)[C@@H](C)NC(=O)[C@H](CCCCNC(=O)CCCCCNC(=O)[C@H](Cc2ccc(O)cc2)NC(=O)[C@H](Cc2ccc(O)cc2)NC(=O)CNC(=O)[C@@H](N)CCCCN)NC(=O)[C@@H](C)NC(=O)[C@H](CCCCNC(=O)CCCCCNC(=O)[C@H](Cc2ccc(O)cc2)NC(=O)[C@H](Cc2ccc(O)cc2)NC(=O)CNC(=O)[C@@H](N)CCCCN)NC1=O [L4] (cyclo(K([Ahx-Tyr-Tyr-Gly-Lys])[dA]K([Ahx-Tyr-Tyr-Gly-Lys])[dA]K([Ahx-Tyr-Tyr-Gly-Lys])[dA]))
% of inhibition of the expression of CD95 induced by CD40L ([1]; ligand 0.5 μM): 19% | % of inhibition of the expression of CD95 induced by CD40L ([1]; ligand 5 μM): 36% | % of inhibition of the expression of CD95 induced by CD40L ([1]; ligand 10 μM): 40% | % of inhibition of the expression of CD95 induced by CD40L ([1]; ligand 50 μM): 22% | cell mortality [2]: substantial cell mortality
